The source of these data is EP2650284A1, “Heterocyclic derivatives as metabotropic glutamate receptor modulators” (Merz Pharma GmbH & Co. KGaA, priority 2012, dated 2013).

The target of test [1] is T1, human metabotropic glutamate receptor mGluR5 (Homo sapiens, UniProt P41594).
T1 construct: expressed in transfected cells; host or cells: CHO-K1 (h5CHO), IPTG-inducible
The test can be described thus: Cytosolic calcium studies with stably transfected cells (h5CHO), functional assay of mGluR5 receptors. Format: cell-based. The following applies: for h left shift / EC50: Table A1; for h left shift: left shift of agonist EC50, dose response curves in the presence of 10 µM modulator or vehicle; for h left shift / IC50: h5CHO cells; for EC50: positive modulators, h5CHO cells preincubated with modulator, stimulated by an EC20 concentration of L-glutamate, read-out: hEC50; for IC50: Table A2, negative modulation, compounds added 5 minutes before L-quisqualic acid (~80% of the maximal signal), read-out: hIC50. Here is the method: Chinese hamster ovary cells (CHO-K1 cells), stably transfected for inducible expression of a human metabotropic glutamate receptor mGluR5 to form a cell line called h5CHO, are seeded into black clear bottom 96 well plates at a density of 35.000 cells per well. The standard growth medium used (Dulbecco's modified Eagle Medium, DMEM plus L-proline) contains the appropriate inducer isopropyl-β-D-thiogalactopyranosid (IPTG) to achieve optimal receptor expression. One day after seeding the growth medium is exchanged for reconstituted Ca-Kit (Molecular Devices, USA) and incubated for one hour. Ca-Kit is reconstituted in an assay buffer containing 20 mM HEPES pH 7.4, glutamic-pyruvate transaminase, pyridoxal phosphate and sodium pyruvate in Hank's balanced salt solution (HBBS). Agonistic compounds to the receptor elicit increases in cytosolic calcium which can be measured as increases in fluorescence signals by use of a fluorescence imaging plate reader (Molecular Devices). To analyze their potency to negatively modulate the Ca-response test compounds, dissolved in a final DMSO concentration of 0.5%, are added on-line 5 minutes before the agonist to the receptor (L-quisqualic acid at a concentration giving ~80% of the maximal signal). EC50 values for positive allosteric modulators were determined by stimulating the cells which have been preincubated the modulators by an EC20 concentration of L-glutamate.
(§1) The fluorescence signal increase after addition of agonist reflects the increase of cytosolic calcium. Inconsistencies in the amount of cells per well are normalised by using the spatial uniformity correction of the FLIPR operating software Screenworks. The mean of replicated temporal data (n=3-5) is calculated and used for graphical representation. For the evaluation of the pharmacology, the calcium changes in response to different concentrations of agonist or antagonist are determined using a maximum minus minimum (MaxMin) calculation.
(§2) All responses (RFU-values) are determined as percentage of control (= maximum response). EC50 and IC50 are calculated according the logistic equation using XLFit (IDBS, UK) or Prism 4.0 (GraphPad Software, USA). The compounds of the present invention have a potency (EC50 or IC50) within a range of about 0.5 nM to about 100 µM. The left shifts for positive or slient allosteric modulators (PAMs or SAMs, respectively) are determined by comparison of EC50 values from agonist dose response curves run in the presence of 10 µM modulator or vehicle (Vanejevs et al., J. Med. Chem., 2008, 51, 634-647).

Another test concerns the target T2, mGluR5 receptors (Rattus norvegicus, UniProt P31424).
T2 construct: Primary astrocyte cultures are prepared from cortices of newborn rats; endogenous in cells; host or cells: primary cortical astrocytes from Sprague-Dawley rat pups (2-4 d old)
The test can be described thus: Cytosolic calcium studies with astrocytes (FLIPR), functional assay of mGluR5 receptors. Format: cell-based. The following applies: for r left shift: Table A1, left shift of quisqualate EC50 in the presence and absence of 10 µM modulator; for EC50: Table A1, positive modulators, fixed concentration of quisqualate (normally 10-30 nM), read-out: rEC50. Here is the method:
Primary astrocyte cultures are prepared from cortices of newborn rats as described by Booher and Sensenbrenner (1972, Neurobiology 2(3):97-105). Briefly, Sprague-Dawley rat pups (2 - 4 d old) are decapitated and neocortices are dissected, disintegrated with a nylon filter (pore size 80 µm) and carefully triturated. The cell suspension is plated on poly-D-lysine pre-coated flasks (Costar, Netherlands) and cultivated in Dulbecco's Modified Eagle's Medium (DMEM, Invitrogen, Germany) supplemented with 10% foetal calf serum (FCS, Sigma, Germany), 4 mM glutamine and 50 µg/ml gentamycin (both Biochrom, Germany) at 37°C in a humidified atmosphere of 5% CO2/ 95% air for 7 days with exchanging the medium at day 2 and 6.
After 7 days in vitro (DIV), cells are shaken overnight at 250 rpm to remove oligodendrocytes and microglia. The next day, astrocytes are rinsed twice with CMF-PBS (calcium- and magnesium-free phosphate buffered saline, Biochrom, Germany), trypsinized and subplated on poly-D-lysine pre-coated 96-well plates (Greiner, Germany) at a density of 40,000 cells/well. 24 h after establishing the secondary culture the astrocytes are rinsed with PBS^++ (phosphate buffered saline, Biochrom, Germany) and fed with astrocyte-defined medium (ADM) consisting of DMEM containing 1x G5-supplement (Invitrogen, Germany), 0.5 µg/ml heparan sulfate, and 1.5 µg/ml fibronectin (both Sigma, Germany) (Miller et al., (1993) Brain Res. 618(1):175-8). 3 days later the medium is exchanged and the cells incubated for another 2-3 days, so that at the time of experiments astrocytes are 14-15 DIV.
The increase of cytosolic calcium after stimulation with the mGluR5 agonist L-quisqualate is measured using a fluorometric imaging plate reader (FLIPR) and the Ca-Kit (both Molecular Devices). Prior to addition of agonist or antagonist the medium is aspirated and cells are loaded for 2 h at RT with 150 µl of loading buffer consisting of Ca-sensitive dye reconstituted in sodium chloride (123 mM), potassium chloride (5.4 mM), magnesium chloride (0.8 mM), calcium chloride (1.8 mM), D-glucose (15 mM), and HEPES (20 mM), pH 7.3. Subsequently, plates are transferred to FLIPR to detect calcium increase with the addition of L-quisqualate (100 nM) measured as relative fluorescence units (RFU). If antagonists are tested, these compounds are pre-incubated for 10 minutes at RT before addition of the respective agonist.
For positive modulators, concentration-response curves for quisqualate are performed in the presence and absence of 10 µM modulator to determine the extent of potentiation / agonist potency increase. Thereafter, concentration-response curves for the positive modulator are performed in the presence of a fixed concentration of quisqualate showing the biggest window for potentiation (normally 10-30 nM).
as §1, §2

T2 sequence (P31424 21-1203): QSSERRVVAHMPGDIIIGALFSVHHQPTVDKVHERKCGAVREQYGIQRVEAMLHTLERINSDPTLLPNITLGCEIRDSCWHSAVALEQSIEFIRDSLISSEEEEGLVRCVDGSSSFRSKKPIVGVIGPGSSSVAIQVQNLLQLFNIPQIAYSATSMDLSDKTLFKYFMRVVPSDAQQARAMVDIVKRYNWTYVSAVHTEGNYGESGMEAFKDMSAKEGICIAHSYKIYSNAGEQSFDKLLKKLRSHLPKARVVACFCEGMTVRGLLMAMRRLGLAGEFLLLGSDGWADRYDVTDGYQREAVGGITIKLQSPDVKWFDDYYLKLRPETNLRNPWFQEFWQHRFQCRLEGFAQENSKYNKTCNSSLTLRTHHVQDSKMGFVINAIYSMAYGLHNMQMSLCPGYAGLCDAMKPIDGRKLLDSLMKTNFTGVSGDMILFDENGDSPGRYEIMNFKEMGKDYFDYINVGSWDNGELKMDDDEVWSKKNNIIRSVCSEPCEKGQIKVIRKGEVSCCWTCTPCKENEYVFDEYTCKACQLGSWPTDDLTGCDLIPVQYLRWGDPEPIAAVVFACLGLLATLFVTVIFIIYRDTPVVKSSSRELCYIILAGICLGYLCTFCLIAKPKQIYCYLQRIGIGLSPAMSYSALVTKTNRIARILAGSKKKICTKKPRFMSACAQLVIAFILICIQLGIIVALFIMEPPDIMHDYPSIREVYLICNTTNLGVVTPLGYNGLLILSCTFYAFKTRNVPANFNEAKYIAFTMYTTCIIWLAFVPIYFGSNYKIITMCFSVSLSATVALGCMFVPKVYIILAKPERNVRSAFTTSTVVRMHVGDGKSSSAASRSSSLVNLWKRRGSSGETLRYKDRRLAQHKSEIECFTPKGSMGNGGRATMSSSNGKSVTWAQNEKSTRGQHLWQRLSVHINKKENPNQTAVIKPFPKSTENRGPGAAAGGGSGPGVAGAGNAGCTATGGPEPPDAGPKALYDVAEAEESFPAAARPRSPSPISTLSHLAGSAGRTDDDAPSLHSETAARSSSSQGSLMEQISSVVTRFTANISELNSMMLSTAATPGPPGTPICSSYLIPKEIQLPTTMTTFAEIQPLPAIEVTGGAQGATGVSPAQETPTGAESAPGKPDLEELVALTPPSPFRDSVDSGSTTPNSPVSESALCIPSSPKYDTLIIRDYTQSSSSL
T1 sequence (P41594 21-1212): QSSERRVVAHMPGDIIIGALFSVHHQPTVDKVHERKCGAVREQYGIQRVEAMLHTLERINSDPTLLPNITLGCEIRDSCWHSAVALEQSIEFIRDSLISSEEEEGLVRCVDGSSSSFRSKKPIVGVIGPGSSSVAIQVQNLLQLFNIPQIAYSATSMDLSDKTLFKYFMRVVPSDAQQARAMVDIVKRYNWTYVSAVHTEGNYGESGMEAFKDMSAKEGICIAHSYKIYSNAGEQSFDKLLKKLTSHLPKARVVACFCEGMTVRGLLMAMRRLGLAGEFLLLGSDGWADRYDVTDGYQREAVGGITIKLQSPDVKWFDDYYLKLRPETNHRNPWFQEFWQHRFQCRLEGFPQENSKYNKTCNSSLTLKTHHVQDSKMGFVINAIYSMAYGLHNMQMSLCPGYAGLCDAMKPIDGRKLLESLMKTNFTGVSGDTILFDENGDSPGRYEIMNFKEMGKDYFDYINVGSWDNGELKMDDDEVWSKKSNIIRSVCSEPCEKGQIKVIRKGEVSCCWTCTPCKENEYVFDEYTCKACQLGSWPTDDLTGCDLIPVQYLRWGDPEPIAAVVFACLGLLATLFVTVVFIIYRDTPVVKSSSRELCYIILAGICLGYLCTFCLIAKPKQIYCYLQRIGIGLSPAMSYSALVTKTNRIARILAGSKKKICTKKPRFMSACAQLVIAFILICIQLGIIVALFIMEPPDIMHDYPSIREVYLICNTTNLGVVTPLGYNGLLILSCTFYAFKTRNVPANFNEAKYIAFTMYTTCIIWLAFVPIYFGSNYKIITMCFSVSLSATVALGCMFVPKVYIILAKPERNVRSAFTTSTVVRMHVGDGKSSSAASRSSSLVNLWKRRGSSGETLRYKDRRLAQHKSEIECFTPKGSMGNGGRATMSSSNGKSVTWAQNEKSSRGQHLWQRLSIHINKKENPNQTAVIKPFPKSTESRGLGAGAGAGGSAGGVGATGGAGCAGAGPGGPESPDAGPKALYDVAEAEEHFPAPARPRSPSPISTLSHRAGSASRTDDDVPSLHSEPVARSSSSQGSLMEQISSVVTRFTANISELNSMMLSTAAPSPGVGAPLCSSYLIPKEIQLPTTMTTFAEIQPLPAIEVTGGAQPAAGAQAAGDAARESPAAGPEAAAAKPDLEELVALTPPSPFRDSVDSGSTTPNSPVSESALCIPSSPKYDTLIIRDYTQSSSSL

For the compound `COC1CCCc2ncc(C#Cc3ccccc3)cc21` (racemic) [Example 1, (rac)-5-Methoxy-3-(phenylethynyl)-5,6,7,8-tetrahydroquinoline], in test [1], the h left shift is 2.6-fold and the EC50 turned out to be 32.1 nM. On mGluR5 receptors, the r left shift is reported as 4.9-fold and the EC50 was 22.7 nM.
With `COC1CCCc2ncc(C#Cc3cccc(N)n3)cc21` (racemic) [Example 3, (rac)-6-((5-Methoxy-5,6,7,8-tetrahydroquinolin-3-yl)ethynyl)pyridin-2-amine], in test [1], the IC50 came out at 4230 nM.
Still for that read-out and setting: the value for `COC1CC(C)(C)Cc2ncc(C#Cc3ccccc3)cc21` (racemic) [Example 4, (rac)-5-Methoxy-7,7-dimethyl-3-(phenylethynyl)-5,6,7,8-tetrahydroquinoline] was 341 nM.
As for `COC1CC(C)(C)Cc2ncc(C#Cc3cccc(N)n3)cc21` (racemic) [Example 5, (rac)-6-((5-Methoxy-7,7-dimethyl-5,6,7,8-tetrahydroquinolin-3-yl)ethynyl)pyridin-2-amine], the IC50 worked out at 66.7 nM in test [1] and 45.7 nM at mGluR5 receptors (Table A2, pre-incubated 10 minutes before L-quisqualate (100 nM), read-out: rIC50).
As to `COC1CC(C)(C)Cc2ncc(C#Cc3cn4ccccc4n3)cc21` (racemic) [Example 6, (rac)-3-(Imidazo[1,2-a]pyridin-2-ylethynyl)-5-methoxy-7,7-dimethyl-5,6,7,8-tetrahydroquinoline], in test [1], the IC50 worked out at 695 nM.
Turning to `COC1CC(C)(C)Oc2ncc(C#Cc3cccc(N)n3)cc21` (racemic) [Example 7, (rac)-6-((4-Methoxy-2,2-dimethyl-3,4-dihydro-2H-pyrano[2,3-b]pyridin-6-yl)ethynyl)pyridin-2-amine], in test [1], the IC50 is 203 nM.
On the same count and under the same terms, the value for `COC1CC(C)(C)Oc2ncc(C#Cc3cn4ccccc4n3)cc21` (racemic) [Example 8, (rac)-6-(Imidazo[1,2-a]pyridin-2-ylethynyl)-4-methoxy-2,2-dimethyl-3,4-dihydro-2H-pyrano[2,3-b]pyridine] was 225 nM.
For the compound `O=C1NCC2(CCCc3ncc(C#Cc4ccccc4)cc32)O1` (racemic) [Example 10, (rac)-3'-(Phenylethynyl)-7',8'-dihydro-6'H-spiro[oxazolidine-5,5'-quinolin]-2-one], the h left shift in test [1] was 1.8-fold.
On to `CN1CC2(CCCc3ncc(C#Cc4ccccc4)cc32)OC1=O` (racemic) [Example 11, (rac)-3-Methyl-3'-(phenylethynyl)-7',8'-dihydro-6'H-spiro[oxazolidine-5,5'-quinolin]-2-one], for which, in test [1], the h left shift was 1.8-fold and the EC50 came to 53.7 nM. Besides, on mGluR5 receptors, the r left shift is listed as 2.9-fold and the EC50 came to 58.6 nM.
For `O=C1OC2(CCCc3ncc(C#Cc4ccccc4)cc32)CN1c1ccccc1` (racemic) [Example 12, (rac)-3-Phenyl-3'-(phenylethynyl)-7',8'-dihydro-6'H-spiro[oxazolidine-5,5'-quinolin]-2-one], in test [1], the h left shift is on record as 1.9-fold. In addition, the EC50 in test [1] is 966 nM; on mGluR5 receptors it was 856 nM.
As to `CN1CCO[C@@H]2c3cc(C#Cc4ccccc4)cnc3CC[C@@H]21` (racemic) [Example 13, (rac)-cis-4-Methyl-9-(phenylethynyl)-3,4,4a,5,6,10b-hexahydro-2H-[1,4]oxazino[2,3-f]quinoline], in test [1], the h left shift was 1.7-fold and the EC50 stood at 425 nM. Moreover, the r left shift at mGluR5 receptors was 1.7-fold.
Consider `CN1CCC2Cc3ncc(C#Cc4ccccc4)cc3CN2C1=O` (racemic) [Example 57, (rac)-8-Methyl-3-(phenylethynyl)-9,10,10a,11-tetrahydro-5H-pyrimido[1,6-g][1,6]naphthyridin-7(8H)-one], for which, in test [1], the IC50 was determined as 190 nM.
On to `COC(=O)N1Cc2cc(C#Cc3cccc(F)c3)cnc2[C@H]2CCC[C@H]21` (racemic) [Example 61, (rac)-cis-Methyl 3-((3-fluorophenyl)ethynyl)-7,8,9,9a-tetrahydro-5H-cyclopenta[h][1,6]naphthyridine-6(6aH)-carboxylate], for which the IC50 in test [1] worked out at 132 nM.
For the compound `COC(=O)N1Cc2cc(C#Cc3ccccc3)cnc2[C@H]2CCCC[C@H]21` (racemic) [Example 62, (rac)-cis-Methyl 3-(phenylethynyl)-6a,7,8,9,10,10a-hexahydrobenzo[h][1,6]naphthyridine-6(5H)-carboxylate], the IC50 in test [1] was 1400 nM.
As to `COC(=O)N1Cc2cc(C#Cc3cccc(F)c3)cnc2[C@H]2CCCC[C@H]21` (racemic) [Example 63, (rac)-cis-Methyl 3-((3-fluorophenyl)ethynyl)-6a,7,8,9,10,10a-hexahydrobenzo[h][1,6]naphthyridine-6(5H)-carboxylate], the IC50 in test [1] came to 1320 nM.
Regarding `CC(C)(C)C(=O)N1CCc2ncc(C#Cc3cccc(N)n3)cc2C1` [Example 35, 1-(3-((6-Aminopyridin-2-yl)ethynyl)-7,8-dihydro-1,6-naphthyridin-6(5H)-yl)-2,2-dimethylpropan-1-one], the IC50 in test [1] was 617 nM.
The same measure, in the same setting: the value for `CN(C)C(=O)N1CCc2ncc(C#Cc3ccccc3)cc2C1` [Example 44, N,N-Dimethyl-3-(phenylethynyl)-7,8-dihydro-1,6-naphthyridine-6(5H)-carboxamide] was 247 nM; that for `CN(C)C(=O)N1CCc2ncc(C#Cc3cccc(N)n3)cc2C1` [Example 47, 3-((6-Aminopyridin-2-yl)ethynyl)-N,N-dimethyl-7,8-dihydro-1,6-naphthyridine-6(5H)-carboxamide] was 261 nM; that for `CCN(CC)C(=O)N1CCc2ncc(C#Cc3cccc(C#N)c3)cc2C1` [Example 48, 3-((3-Cyanophenyl)ethynyl)-N,N-diethyl-7,8-dihydro-1,6-naphthyridine-6(5H)-carboxamide] was 194 nM.
Still for that read-out and setting: as for `Cc1cccc(C#Cc2cnc3c(c2)CS(=O)(=O)CC3)c1` [Example 68, 3-(m-Tolylethynyl)-7,8-dihydro-5H-thiopyrano[4,3-b]pyridine 6,6-dioxide], the figure is 75.5 nM.
Consider `CC1(C)c2cc(C#Cc3ccccc3)cnc2CCS1(=O)=O` [Example 75, 5,5-Dimethyl-3-(phenylethynyl)-7,8-dihydro-5H-thiopyrano[4,3-b]pyridine 6,6-dioxide], for which, in test [1], the h left shift was 1.6-fold and the EC50 amounted to 971 nM.
